{"source": "patent US5854010A", "about": "“Bioassay for detecting 2,3,7,8-tetrachlorodibenzo-para-dioxin and TCDD-like compounds and novel recombinant cell line useful therefor” (priority 1997, dated 1998)", "key": {"[1]": {"system": "human hepatoma HepG2 cells", "assay": "TCDD-inducible luciferase activity, transient transfection with pGudLuc1.1", "assay_type": "cell-based", "protocol": "(§1) In general, the expression vectors pGudLuc1.0 and pGudLuc1.1 were prepared as follows. A 1330-bp HindIII fragment or an 1810-bp HindIII fragment isolated from the plasmid, pMpap1.0 or pMpap1.1, respectively (see, El-Fouly et al., supra), was subcloned into the HindIII site immediately upstream of the luciferase gene in the plasmid pGL2-basic (purchased from Promega).\n(§2) More specifically, the following cells were obtained from the source indicated. Wild-type and AhR-defective (BPRc1 and TAO, respectively) mouse hepatoma (Hepa1c1c7) cells (Hepa1), derived from a C57B1 mouse liver tumor, were obtained from J. P. Whitlock, Jr. (Stanford University). These cells were grown as previously described by Miller et al. in \"Biochemical and Genetic Analysis of Variant Mouse Hepatoma Cells Defective in the Induction of Benzo(a)pyrene Metabolizing Enzyme Activity\", J. Biol. Chem., Vol. 258, pp. 3523-3527 (1983). Additionally, mouse hepatoma (MLE/BV) cells, derived from a spontaneously immortalized C3H/HeN mouse liver cell, were obtained from B. V. Madhukar (Indiana University School of Medicine, Indianapolis, Ind.) and were grown as described for the Hepa1 cells. Rat hepatoma (H4IIe) cells, guinea pig intestinal adenocarcinoma (GPC16) cells, hamster lung (AHL) cells, human hepatoma (HepG2) cells, human breast tumor (MCF7) cells, and human intestinal epithelial (LS180) cells were obtained from the American Type Culture Collection (Rockville, Md.). Until transfection, all of the cells were maintained according to their respective cell-type-specific culture protocols.\n(§3) Transfection was accomplished as follows. Using polybrene as previously described by Helferich et al. in \"Photooxidized Products of Tryptophan Can Act as Dioxin Agonists\", Mol. Pharmacol., Vol. 40, pp. 674-678 (1991), plates of cells (approximately 80% confluent) were transiently transfected with the desired plasmid (15 μg). Then, the transfected cells were allowed to grow for 48 hours, followed by the addition of either DMSO (1 μl/ml) or TCDD (1 nM) solubilized in DMSO, which was followed by incubation for 24 hours. Next, the plates were transferred onto ice, and the media were removed, after which the plates were rinsed twice with cold PBS. Then, 200 μl of luciferase lysis buffer (purchased from Promega) was used to lyse the cells. The lysed cell samples were collected and transferred into a microfuge tube. Cell debris was pelleted by centrifugation, and the supernatants were collected. The supernatant samples were assayed for TCDD-inducible luciferase activity in the following manner.\n(§4) Using the stabilized luciferase assay system (purchased from Promega), luciferase activity in an aliquot of the cleared lysed cell supernatant (20 μl) was determined by mixing it with 100 µl of luciferase assay reagent (purchased from Promega) and measuring the resulting luminescence in a Turner Luminometer or Dynatech ML3000 microplate luminometer (light output was integrated over 1 minute after a delay time of 30 seconds).\n(§5) Using a microplate adaptation of the method reported by Bradford in \"A Rapid Sensitive Method for the Quantitation of Microgram Quantities of Protein Utilizing the Principle of Protein-Dye Binding\", Anal. Biochem., […], pp. 248-254 (1976), luciferase activity was standardized to the protein concentration of the supernatant (with bovine serum albumin as the protein standard). Because of instrument differences in luminescence measurement and data output, luciferase activity was determined as relative light units (RLU) per microgram of protein, which was converted to milligram of protein as reported in the Tables below."}, "rat hepatoma H4IIE cells": {"system": "rat hepatoma H4IIE cells", "assay": "TCDD-inducible luciferase activity, transient transfection with pGudLuc1.1", "assay_type": "cell-based", "protocol": "as §1, §2, §3, §4, §5"}, "[2]": {"system": "human intestinal epithelial LS180 cells", "assay": "TCDD-inducible luciferase activity, transient transfection with pGudLuc1.1", "assay_type": "cell-based", "protocol": "as §1, §2, §3, §4, §5"}, "[3]": {"system": "guinea pig intestinal adenocarcinoma GPC16 cells", "assay": "TCDD-inducible luciferase activity, transient transfection with pGudLuc1.1", "assay_type": "cell-based", "protocol": "as §1, §2, §3, §4, §5"}, "[4]": {"system": "mouse hepatoma Hepa1c1c7 cells (wild type)", "assay": "TCDD-inducible luciferase activity, transient transfection with pGudLuc1.1", "assay_type": "cell-based", "protocol": "as §1, §2, §3, §4, §5"}, "hamster lung AHL cells": {"system": "hamster lung AHL cells", "assay": "TCDD-inducible luciferase activity, transient transfection with pGudLuc1.1", "assay_type": "cell-based", "protocol": "as §1, §2, §3, §4, §5"}, "[5]": {"system": "human breast tumor MCF7 cells", "assay": "TCDD-inducible luciferase activity, transient transfection with pGudLuc1.1", "assay_type": "cell-based", "protocol": "as §1, §2, §3, §4, §5"}, "[6]": {"system": "Human 101L cells (recombinant HepG2), luciferase", "conditions": "Table 3 comparison, Postlind et al.; read-out: ED50 (the source's name); cited from earlier work"}, "[7]": {"system": "Hepa1-TAO cells (reduced levels of AhR)", "assay": "TCDD-inducible luciferase activity, transient transfection with pGudLuc1.1", "assay_type": "cell-based, mouse", "protocol": "as §1, §2, §3, §4, §5"}, "MLE-BV cells": {"system": "MLE-BV cells", "assay": "TCDD-inducible luciferase activity, transient transfection with pGudLuc1.1", "assay_type": "cell-based, mouse", "protocol": "as §1, §2, §3, §4, §5"}, "[8]": {"system": "Hepa1-BPRc1 cells (defective arnt protein)", "assay": "TCDD-inducible luciferase activity, transient transfection with pGudLuc1.1", "assay_type": "cell-based, mouse", "protocol": "as §1, §2, §3, §4, §5"}, "H1L1.1 cells": {"system": "H1L1.1 cells", "assay": "Time course of luciferase induction by TCDD (FIG. 2)", "assay_type": "cell-based, mouse", "conditions": "1 nM TCDD in DMSO", "protocol": "Specifically, with respect to the graph of FIG. 2, the time course of luciferase induction by TCDD was examined in order to determine the optimal time period for measurement of luciferase activity in the H1L1.1 cells. In these experiments, the cells were treated with 1 nM of TCDD solubilized in DMSO or with only DMSO. The luciferase activity was determined as described above at various times up to 32 hours post exposure. Values represent the mean ± the standard evaluation of at least triplicate determinations."}, "[9]": {"conditions": "Mus musculus, Luc1.1, TCDD 1 nM vs DMSO"}}, "note": "Read-outs that look alike come from different tables or passages of the source.", "data": [{"smiles": "Clc1cc2c(cc1Cl)Oc1cc(Cl)c(Cl)cc1O2", "note": "[TCDD, 2,3,7,8-tetrachlorodibenzo-para-dioxin]", "values": [{"measurement": "fold induction", "setting": "[1]; Homo sapiens, HepG2, Luc1.1, TCDD 1 nM vs DMSO", "value": 66.3}, {"measurement": "Luciferase activity, TCDD in DMSO", "setting": "[1]; Luc1.1, TCDD 1 nM, 24 h", "value": 690, "unit": "RLU/mg protein"}, {"measurement": "Luciferase activity, TCDD in DMSO", "setting": "rat hepatoma H4IIE cells; Luc1.1, TCDD 1 nM, 24 h", "value": 34.2, "unit": "RLU/mg protein"}, {"measurement": "fold induction", "setting": "rat hepatoma H4IIE cells; Rattus norvegicus, H4IIE, Luc1.1, TCDD 1 nM vs DMSO", "value": 28.5}, {"measurement": "fold induction", "setting": "[2]; Homo sapiens, LS180, Luc1.1, TCDD 1 nM vs DMSO", "value": 18.6}, {"measurement": "Luciferase activity, TCDD in DMSO", "setting": "[2]; Luc1.1, TCDD 1 nM, 24 h", "value": 26.0, "unit": "RLU/mg protein"}, {"measurement": "fold induction", "setting": "[3]; Cavia porcellus, Luc1.1, TCDD 1 nM vs DMSO", "value": 7.6}, {"measurement": "Luciferase activity, TCDD in DMSO", "setting": "[3]; Luc1.1, TCDD 1 nM, 24 h", "value": 28.8, "unit": "RLU/mg protein"}, {"measurement": "fold induction", "setting": "[4]; Luc1.1, TCDD 1 nM vs DMSO, 0.001 µM", "value": 60, "unit": "Fold"}, {"measurement": "Luciferase activity, TCDD in DMSO", "setting": "[4]; Luc1.1, TCDD 1 nM, 24 h, mean of triplicate transfections", "value": 12.1, "unit": "RLU/mg protein"}, {"measurement": "fold induction", "setting": "[4]; Mus musculus, Hepa-1c1c7, Luc1.1, TCDD 1 nM vs DMSO, read-out: Fold induction", "value": 60.5}, {"measurement": "Luciferase activity, TCDD in DMSO", "setting": "hamster lung AHL cells; Luc1.1, TCDD 1 nM, 24 h", "value": 174, "unit": "RLU/mg protein"}, {"measurement": "fold induction", "setting": "hamster lung AHL cells; Mesocricetus auratus, Luc1.1, TCDD 1 nM vs DMSO", "value": 5.8}, {"measurement": "fold induction", "setting": "[5]; Homo sapiens, MCF7, Luc1.1, TCDD 1 nM vs DMSO", "value": 33.4}, {"measurement": "Luciferase activity, TCDD in DMSO", "setting": "[5]; Luc1.1, TCDD 1 nM, 24 h", "value": 63.5, "unit": "RLU/mg protein"}, {"measurement": "EC50", "setting": "[6]", "value": 0.35, "unit": "nM"}, {"measurement": "Luciferase activity, TCDD in DMSO", "setting": "[7]; Luc1.1, TCDD 1 nM, 24 h", "value": 1.8, "unit": "RLU/mg protein"}, {"measurement": "fold induction", "setting": "[7]; [9]", "value": 4.5}, {"measurement": "Inducibility of luciferase activity", "setting": "[7]; pGudLuc1.1, TCDD 1 nM", "value": "reduced inducibility"}, {"measurement": "Luciferase activity, TCDD in DMSO", "setting": "MLE-BV cells; Luc1.1, TCDD 1 nM, 24 h", "value": 13.2, "unit": "RLU/mg protein"}, {"measurement": "fold induction", "setting": "MLE-BV cells; [9]", "value": 66}, {"measurement": "Luciferase activity, TCDD in DMSO", "setting": "[8]; Luc1.1, TCDD 1 nM, 24 h", "value": 0.8, "unit": "RLU/mg protein"}, {"measurement": "fold induction", "setting": "[8]; [9]", "value": 1.6}, {"measurement": "Induction of luciferase activity", "setting": "[8]; pGudLuc1.1, TCDD 1 nM", "value": "failure of TCDD treatment to induce luciferase activity"}, {"measurement": "Time at which TCDD-inducible luciferase activity was detectable", "setting": "H1L1.1 cells", "value": 2, "unit": "h"}, {"measurement": "Time by which luciferase activity decreased to a stable activity", "setting": "H1L1.1 cells", "value": "≤ 12", "unit": "h"}, {"measurement": "Time of peak TCDD-inducible luciferase activity", "setting": "H1L1.1 cells", "value": "about 4 hours"}]}]}
